Measured values reported in patent publication EP0437336B1, “Biophosphoryl hydrazines and their use as pesticides” (priority 1990, dated 1991).
≈ marks a conversion by molar mass, not a printed value. Where two headings read alike, the source gives them in different places.

Legend:
[1] = tested on: southern corn rootworm, Diabrotica undecimpunctata howardi; assay: Biological Method A: Corn Rootworm Screening Test (treated non-aggressive soil); details: soil concentration giving 90% mortality, 10 days at 27°C
Boll Weevil [2] = assay: Biological Method D: Foliar Insecticidal Activity Test, boll weevil test; assay type: in vivo, Anthonomous grandis; details: for BW 48 hrs LC50 / BW 96 hrs LC50: spray into jar
Experimental: (§1) Biological Method D: Foliar Insecticidal Activity Test
(§2) In evaluating the foliar insecticidal activity of the compounds of this invention against insects and mites, the following test procedures were employed.
(§3) Not all compounds were tested at each of the several concentrations stated above. Test concentrations of a compound were selected as those most likely to differentiate dose response of a particular compound toward a particular test insect.
(§4) Initial evaluations were made on one or more of the following pests:
(§5) For the boll weevil test, 10 adult weevils were placed in a 0.24 ℓ (0.5 pint) glass Mason jar containing a small cube of apple. The weevils were confined to the jar by fiberglass screen mesh secured by a screw-type rim cap. The jars were then sprayed with the test solution using a rotating turntable; directing the spray through the mesh into the jar. The percentage killed was determined after forty-eight and ninety six hours.
(§6) The mortalities obtained in this manner were plotted on logarithmic probability paper.
(§7) The rotating turntable consists of a fixed, continuously operating spray nozzle under which targets are rotated at a fixed speed and distance. If the target is a Petri dish (such as for the bean beetle, armyworm, mite, or aphid tests), the distance from the nozzle is 38.1 cm (15 inches). If the target is a Mason jar (such as for the boll weevil test), the distance from the nozzle is 17.8 cm (7 inches). The nozzle is located 8 inches from the rotating shaft. The targets on individual platforms revolve around the shaft at 1 revolution per 20 seconds but only a brief portion of this time occurs in the spray path. Targets pass only once under the nozzle and then are removed to drying hoods.
(§8) The nozzle used is a 1/4 JCO Spraying Systems (Wheaton, Illinois) air atomizing nozzle equipped with a No. 2850 fluid cap and a No. 70 air cap. At the 68.95 x 10³ Pa gauge (10 psig) air pressure used and with liquid siphon feed, 1.89 ℓ/hr [0.5 GPH (gallons per hour)] are delivered in a round spray pattern with a 21 degree spray angle. Targets are misted with spray droplets to the point that the droplets coalesce to form a uniform thin film insufficient to drown test organisms.

Two-Spotted Spider Mite = assay: Biological Method D: Foliar Insecticidal Activity Test, mite test; assay type: in vivo, Tetranychus urticae; parameters: key to LC50 TSM: I = inactive at concentration listed; details: for TSM LC50 / LC50: foliar spray, kill after twenty-four hours; for LC50: Tetranychus urticae, 24 h, read-out: TSM LC50; for LC50 TSM: Method D foliar test, Two-Spotted Spider Mite
Experimental: as §1, §2, §3, §4
For the mite test, infested bean (Phaseolus limensis var. Woods Prolific) leaf discs [3.18 cm (1.25") in diameter] containing about 50 mites were placed in a Petri dish lid on a moistened piece of cotton. The leaves were then sprayed to thorough wetness with the test solution using a rotating turntable, held for twenty-four hours and then the percentage killed was determined.
as §6, §7, §8

Green Peach Aphid [3] = assay: Biological Method D: Foliar Insecticidal Activity Test, aphid test; assay type: in vivo, Myzus persicae; details: foliar spray; kill after twenty-four hours
Experimental: as §1, §2, §3, §4
(§9) For the aphid test, infested broccoli (Brassica oleracea italica var. DiCicco) leaves containing about 50 aphids were placed in a Petri dish lid on a moistened piece of cotton. The leaves were then sprayed to thorough wetness with the test solution using a rotating turntable, held for twenty-four hours and then the percentage killed was determined.
as §6, §7, §8

Southern Armyworm [4] = assay: Biological Method D: Foliar Insecticidal Activity Test, Southern Armyworm test; assay type: in vivo, Spodoptera eridania; details: for AW 48 hrs LC50 / AW 96 hrs LC50: foliar spray; for AW 48 hrs LC50: 48 hours after treatment; for AW 96 hrs LC50: 96 hours after treatment; for LC50: Spodoptera eridania, Method D foliar test, Southern Armyworm
Experimental: as §1, §2, §3, §4
(§10) For the Mexican Bean Beetle and Southern armyworm tests, individual lima bean (Phaseolus limeniss var. Woods' Prolific) leaves were placed on moistened pieces of filter paper in Petri dishes. The leaves were then sprayed with the test solution using a rotating turntable and allowed to dry. The dishes were then infested with 10 third instar larvae of either the Mexican Been Beetle or the Southern Armyworm. The dishes were then covered. Percent mortality was determined for each species and spray concentration at 48 and 96 hours after treatment.
as §6, §7, §8

Mexican Bean Beetle = assay: Biological Method D: Foliar Insecticidal Activity Test, Mexican Bean Beetle test; assay type: in vivo, Epilachna varivestis; parameters: key to LC50 BB 96 hrs / LC50 BB 48 hrs.: I = inactive at concentration listed; details: for LC50: Epilachna varivestis
Experimental: as §1, §2, §3, §4, §10, §6, §7, §8

Boll Weevil [5] = assay: Biological Method D: Foliar Insecticidal Activity Test, boll weevil test; assay type: in vivo, Anthonomous grandis; parameters: key: I = inactive at concentration listed
Experimental: as §1, §2, §3, §4, §5, §6, §7, §8

Green Peach Aphid [6] = assay: Biological Method D: Foliar Insecticidal Activity Test, aphid test; assay type: in vivo, Myzus persicae; parameters: key: I = inactive at concentration listed
Experimental: as §1, §2, §3, §4, §9, §6, §7, §8

[7] = tested on: southern corn rootworm, Diabrotica undecimpunctata howardi; details: at-planting soil application
Southern Armyworm [8] = assay: Biological Method D: Foliar Insecticidal Activity Test, Southern Armyworm test; assay type: in vivo, Spodoptera eridania; parameters: key: I = inactive at concentration listed
Experimental: as §1, §2, §3, §4, §10, §6, §7, §8

[9] = foliar spray, 48 hours after treatment, read-out: BB 48 hrs. LC50
[10] = foliar spray, 96 hours after treatment, read-out: BB 96 hrs LC50
[11] = Method D foliar test, Mexican Bean Beetle, 48 hrs
[12] = Method D foliar test, Mexican Bean Beetle, 96 hrs
[13] = 48 hrs, read-out: LC50 AW 48 hrs
[14] = 96 hrs, read-out: LC50 AW 96 hrs
[15] = Method D foliar test, Mexican Bean Beetle, 96 hrs, read-out: LC50 BB 96 hrs
[16] = Method D foliar test, Boll Weevil

SMILES | primary nonagressive Method A crw LC90 [1] [ppm] | BW 48 hrs LC50 (Boll Weevil [2]) | BW 96 hrs LC50 (Boll Weevil [2]) | TSM LC50 (Two-Spotted Spider Mite) | GPA LC50 (Green Peach Aphid [3]) | AW 48 hrs LC50 (Southern Armyworm [4]) | AW 96 hrs LC50 (Southern Armyworm [4]) | LC50 (Mexican Bean Beetle; [9]) [µg/mL] | LC50 (Mexican Bean Beetle; [10]) [µg/mL] | LC50 TSM (Two-Spotted Spider Mite) | LC50 BB 48 hrs. (Mexican Bean Beetle; [11]) | LC50 BW 48 hrs (Boll Weevil [5]) | LC50 GPA (Green Peach Aphid [6]) | secondary aggressive Method C crw LC50 ([7]; rated 17 days post-infestation) [kg/ha] | secondary aggressive Method C crw LC50 ([7]; value in brackets) [lb/acre] | other results
CCCCCCOP(=S)(NNP(=S)(OCCC)OCCC)OCC (centres unmarked) [Compound 80] | 1.1 | I | I | I | I | I | I | – | – | – | – | – | – | – | – | –
CCOP(=S)(NNP(=S)(OCC)OC(C)C)OC(C)C (centres unmarked) [Compound 67, reference compound] | 0.09 | I | I | – | I | I | I | 150 (≈ 412 µM) | 62 (≈ 170 µM) | – | – | – | – | – | – | LC50 (Two-Spotted Spider Mite): 150 µg/mL (≈ 412 µM)
CCCCCOP(=S)(NNP(=S)(OCCC)OCCC)OCC (centres unmarked) [Compound 79] | 1.1 | I | I | I | I | I | I | 380 (≈ 935 µM) | 62 (≈ 153 µM) | – | – | – | – | – | – | –
CCCCCCCCOP(=S)(NNP(=S)(OCC)OCC)OCC (centres unmarked) [Compound 72] | 1.1 | I | I | I | I | I | I | – | – | – | – | – | – | – | – | –
CCOP(=S)(NNP(=S)(OCC)OC(C)(C(F)(F)F)C(F)(F)F)OCC(C)(C)C (centres unmarked) [Compound 48] | 0.40 | – | – | – | – | – | – | – | – | I | I | I | I | 0.63 | 0.56 | LC50 BB 96 hrs (Mexican Bean Beetle; [12]): I; LC50 BW 96 hrs (Boll Weevil [5]): I; LC50 (Southern Armyworm [4]; [13]): 300 µg/mL (≈ 583 µM); LC50 (Southern Armyworm [4]; [14]): 150 µg/mL (≈ 292 µM)
CCCOP(=S)(NNP(=S)(NCC(C)C)OCC)OCCC (centres unmarked) [Compound 81] | 1.1 | I | I | I | I | I | I | 500 (≈ 1280 µM) | 740 (≈ 1890 µM) | – | – | – | – | – | – | –
CCOP(=S)(NNP(=S)(OC(C)C)OC(C)C)OCC(C)C (centres unmarked) [Compound 83] | – | – | – | I | I | I | – | 500 (≈ 1270 µM) | 62 (≈ 158 µM) | – | – | – | – | – | – | –
CCOP(=S)(NCC(C)C)NNP(=S)(OCC)OCC (centres unmarked) [Compound 71] | 1.1 | I | I | I | I | I | I | 150 (≈ 413 µM) | 150 (≈ 413 µM) | – | – | – | – | – | – | –
CCCCCOP(=S)(NNP(=S)(OCC)OCC)OCC (centres unmarked) [Compound 63] | 1.1 | I | 740 ppm | I | I | I | I | – | 740 (≈ 1960 µM) | – | – | – | – | – | – | –
CCCN(C)P(=S)(NNP(=S)(OCC)OCC)OCC (centres unmarked) [Compound 76] | 1.1 | I | I | – | I | I | I | 150 (≈ 413 µM) | 62 (≈ 171 µM) | – | – | – | – | – | – | LC50 (Two-Spotted Spider Mite): 150 µg/mL (≈ 413 µM)
CCOP(=S)(NNP(=S)(OCC)OCC(F)(F)C(F)(F)F)OCC (centres unmarked) [Compound 78] | 1.1 | I | I | – | I | I | I | 360 (≈ 818 µM) | 150 (≈ 341 µM) | – | – | – | – | – | – | LC50 (Two-Spotted Spider Mite): 150 µg/mL (≈ 341 µM)
CCOP(=O)(NNP(=S)(OCC)OCC(C)(C)C)SC(C)CC (centres unmarked) [Compound 52] | 1.1 | – | – | – | – | – | – | – | – | I | – | I | I | 0.78 | 0.70 | LC50 (Mexican Bean Beetle; Method D foliar test, Mexican Bean Beetle, 48 hrs, read-out: LC50 BB 48 hrs.): 500 µg/mL (≈ 1230 µM); LC50 (Mexican Bean Beetle; [15]): 150 µg/mL (≈ 369 µM); LC50 BW 96 hrs (Boll Weevil [5]): I; LC50 AW 48 hrs (Southern Armyworm [8]): I; LC50 AW 96 hrs (Southern Armyworm [8]): I
CCOP(=S)(NNP(=S)(OC)OC)OCC(C)(C)C (centres unmarked) [Compound 44] | 0.37 | – | – | – | – | – | – | – | – | I | I | – | I | 0.56 | 0.50 | LC50 BW 48 hrs (Boll Weevil [2]; Method D foliar test, Boll Weevil, 48 hrs): 380 ppm; LC50 BW 96 hrs (Boll Weevil [2]; [16]): 380 ppm; LC50 BB 96 hrs (Mexican Bean Beetle; [12]): I; LC50 AW 48 hrs (Southern Armyworm [8]): I; LC50 (Southern Armyworm [4]; [14]): 500 µg/mL (≈ 1430 µM)
CCCOP(=S)(NNP(=S)(OCC)OCC(C)(C)C)OCC (centres unmarked) [Compound 45, N-(O-ethyl O-propylthiophosphoryl) N′-(O-ethyl O-neopentylthiophosphoryl) hydrazine] | 0.39 | – | – | – | – | – | – | – | – | I | I | I | I | 0.37 | 0.33 | LC50 BW 96 hrs (Boll Weevil [2]; [16]): 150 ppm; LC50 BB 96 hrs (Mexican Bean Beetle; [12]): I; LC50 AW 48 hrs (Southern Armyworm [8]): I; LC50 (Southern Armyworm [4]; [14]): 150 µg/mL (≈ 382 µM)
CCOP(=S)(NNP(=S)(OCC(C)(C)C)OCC(C)(C)C)OCC(C)(C)C (centres unmarked) [Compound 57, N-(O,O-dineopentylthiophosphoryl) N′-(O-ethyl O-neopentylthiophosphoryl) hydrazine] | 1.1 | – | – | – | – | – | – | – | – | I | I | I | I | 0.5 | 0.45 | LC50 BB 96 hrs (Mexican Bean Beetle; [12]): I; LC50 BW 96 hrs (Boll Weevil [5]): I; LC50 AW 48 hrs (Southern Armyworm [8]): I; LC50 AW 96 hrs (Southern Armyworm [8]): I
CCCOP(=S)(NNP(=S)(OCC)OCC)OCC(C)(C)C (centres unmarked) [Compound 34] | 1.1 | – | – | – | – | – | – | – | – | I | I | I | I | 0.65 | 0.58 | LC50 (Mexican Bean Beetle; [15]): 52 µg/mL (≈ 132 µM); LC50 BW 96 hrs (Boll Weevil [5]): I; LC50 AW 48 hrs (Southern Armyworm [8]): I; LC50 AW 96 hrs (Southern Armyworm [8]): I
CCCOP(=S)(NNP(=O)(OCC)SC(C)CC)OCC (centres unmarked) [Compound 54] | 1.1 | – | – | – | – | – | – | – | – | I | I | I | I | – | – | LC50 BB 96 hrs (Mexican Bean Beetle; [12]): I; LC50 AW 96 hrs (Southern Armyworm [8]): I; LC50 (Southern Armyworm [4]; [13]): 52 µg/mL (≈ 137 µM)
